Experimental data as given in patent EP4786466A1, “QUINAZOLINE DERIVATIVE, SALT THEREOF, AND PHARMACEUTICAL COMPOSITION COMPRISING SAME AS ACTIVE INGREDIENT” (Korea Research Institute of Chemical Technology, priority 2023, dated 2025).
Structures can show the parent of a compound that is named as a salt. Where two headings read alike, the source gives them in different places.

Assays:
[1] = molecular target: T1, Recombinant GST-TAG-MASTL (Homo sapiens, UniProt Q96GX5); assay: HTRF-based kinase assay (HTRF KinEASE assay kit); assay type: biochemical; conditions: for activity at 10 µM: footnote b: concentration 10 µM; for activity at 1 µM: read-out: MASTL activity (%) HTRF (1 µM)
T1 construct: GST; purchased Thermo Fisher Scientific
T1 sequence (Q96GX5 1-879): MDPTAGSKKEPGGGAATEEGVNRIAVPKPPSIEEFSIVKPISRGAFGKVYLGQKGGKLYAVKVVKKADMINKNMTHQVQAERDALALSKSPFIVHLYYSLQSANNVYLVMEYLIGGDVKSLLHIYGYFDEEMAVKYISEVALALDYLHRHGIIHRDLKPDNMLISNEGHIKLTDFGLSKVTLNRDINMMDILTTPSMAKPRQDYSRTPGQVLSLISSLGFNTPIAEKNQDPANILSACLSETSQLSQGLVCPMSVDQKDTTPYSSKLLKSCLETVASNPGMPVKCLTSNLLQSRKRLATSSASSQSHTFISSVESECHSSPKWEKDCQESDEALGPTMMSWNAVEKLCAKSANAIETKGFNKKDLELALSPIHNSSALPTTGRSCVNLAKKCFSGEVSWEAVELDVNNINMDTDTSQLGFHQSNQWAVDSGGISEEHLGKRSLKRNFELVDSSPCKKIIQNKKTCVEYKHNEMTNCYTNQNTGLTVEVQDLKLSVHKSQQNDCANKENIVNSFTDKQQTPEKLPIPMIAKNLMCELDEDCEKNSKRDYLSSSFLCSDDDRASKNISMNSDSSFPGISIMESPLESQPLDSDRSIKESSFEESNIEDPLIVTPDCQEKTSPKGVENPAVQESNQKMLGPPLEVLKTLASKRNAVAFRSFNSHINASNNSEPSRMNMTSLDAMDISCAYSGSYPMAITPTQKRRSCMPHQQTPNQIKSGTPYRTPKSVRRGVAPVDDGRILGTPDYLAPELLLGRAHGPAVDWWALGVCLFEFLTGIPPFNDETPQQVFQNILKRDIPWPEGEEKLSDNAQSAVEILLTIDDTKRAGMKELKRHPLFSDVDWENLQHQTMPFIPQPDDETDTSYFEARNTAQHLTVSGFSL
Source text: Recombinant GST-TAG-MASTL (Thermo Fisher Scientific, MA, USA) was used for HTRF-based kinase assays. The HTRF KinEASE assay kit (CisBio, MA, USA) was used according to the manufacturer's instructions.

pENSA = pENSA level by immunofluorescence (described method: in vitro kinase analysis with GST-tag-MASTL and His-tag-ENSA); assay type: cell-based; conditions: for pENSA (%) Immunofluor ecense (1 µM): compound 1 µM; for IC50: read-out: IC50(nM) pENSA
Procedure, shortened: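 In vitro kinase reaction using recombinant GST-tagged MASTL with His-tagged ENSA as substrate; phosphorylated ENSA (pENSA) serves as read-out of MASTL activity. Cell lines named: MCF7 breast cancer and MCF10A.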

in vitro = conditions: human
Protocol: (§1) MCF7 breast cancer cell lines and MCF10A normal breast cancer cell lines were treated with serial dilutions of the compounds of the present invention ranging from 1 µM to 15.63 nM for 72 hours. Cell viability was measured by the WST-8 assay (Cyto XTM cell viability assay kit; LPS solution, Daejeon, Korea) according to the manufacturer's instructions.

[2] = tested on: MCF7 breast cancer cell lines; assay: Cell viability analysis, WST-8 assay, MCF7; conditions: Homo sapiens, MCF7, 72 h; for viability at 1.25 µM: read-out: Cell viability (%) WST-8, MCF7, footnote a: concentration 1.25 µM, 72 hours; for viability at 1 µM: read-out: Cell viability (%) WST-8, MCF7 (1 µM), compound 1 µM, 72 hours
Protocol: as §1

[3] = tested on: MCF10A normal breast cell lines; assay: Cell viability analysis, WST-8 assay, MCF10A; conditions: Homo sapiens, MCF-10A, 72 h
Protocol: as §1

[4] = HTRF, read-out: IC50(nM) MASTL activity
[5] = read-out: MASTL activity (%) HTRF
[6] = read-out: IC50 Cell viability (MCF7)
[7] = read-out: IC50 Cell viability (MCF10A)
[8] = read-out: IC50(nM) Cell viability (MCF7)
[9] = read-out: IC50(nM) Cell viability (MCF10A)

| SMILES | IC50 [1, 4] | activity at 10 µM [1, 5] | pENSA (%) Immunofluor ecense (1 µM) (pENSA) | IC50 (pENSA) | viability at 1.25 µM (in vitro; mcf10a cells) | viability at 1.25 µM [2] | IC50 [2, 6] | IC50 [3, 7] | activity at 1 µM ([1]; compound 1 µM) | viability at 1 µM (in vitro; mcf10a cells) | viability at 1 µM [2] | IC50 [2, 8] | IC50 [3, 9] | viability at 1.25 µM (in vitro) | IC50 [1] | activity at 1 µM [1] | IC50 ([1]; HTRF, unit µM, read-out: IC50 MASTL activity) | activity at 1.25 µM ([1]; footnote a: concentration 1.25 µM, read-out: MASTL activity (%) HTRF) |
| --- | --- | --- | --- | --- | --- | --- | --- | --- | --- | --- | --- | --- | --- | --- | --- | --- | --- | --- |
| O=C(Nc1ccc(F)cc1)N1CCN(c2nc(Nc3cc(C4CC4)[nH]n3)c3ccccc3n2)CC1 [compound 12d, 4-(4-((5-cyclopropyl-1G-pyrazol-3-yl)amino)quinazolin-2-yl)-M-(4-fluorophenyl)piperazine-1-carboxamide] | 832 nM | 14.1% | 46.3% | 571 nM | 63.7% | 55.8% | 1500 nM | 1500 nM |  |  |  |  |  |  |  |  |  |  |
| NC(=O)c1ccc(Nc2nc(Nc3cc(C4CC4)[nH]n3)c3ccccc3n2)cc1 [compound 4t, 4-((4-((5-cyclopropyl-1G-pyrazol-3-yl)amino)quinazolin-2-yl)amino)benzamide] | 198 nM |  | 0.9% | 341 nM |  |  |  |  | 14.9% | 18.4% | 2.7% | 324 nM | 226 nM |  |  |  |  |  |
| OCCNc1nc(Nc2cc(C3CC3)[nH]n2)c2ccccc2n1 [compound 4cf, 2-((4-((5-cyclopropyl-1G-pyrazol-3-yl)amino)quinazolin-2-yl)amino)ethan-1-ol hydrochloride] | 893 nM | 23.7% | 17.4% | 423 nM | 56.4% | 87% | 1800 nM | 1200 nM |  |  |  |  |  |  |  |  |  |  |
| CC(C)(C)OC(=O)N1CC2CCC1CN2c1nc(Nc2cc(C3CC3)[nH]n2)c2ccccc2n1 (centres unmarked) [compound 19, sdqs,butyl 5-(4-((5-cyclopropyl-1G-pyrazol-3-yl)amino)quinazolin-2-yl)-2,5-diazabicyclo[2.2.2]octane-2-carboxylate] | 569 nM |  | 84.7% |  |  |  | 1100 nM |  | 39.9% | 71.3% | 41.2% |  | 810 nM |  |  |  |  |  |
| Cc1cc(Cl)ccc1C1=CCN(c2nc(Nc3cc(C4CC4)[nH]n3)c3ccccc3n2)CC1 [compound 6l, 2-(4-(4-chloro-2-methylphenyl)-3,6-dihydropyridin-1(2G)-yl)-M-(5-cyclopropyl-1G-pyrazol-3-yl)quinazolin-4-amine] |  |  | 101% |  |  |  |  |  | 76.1% | 15.2% | 47.8% | 484 nM | 332 nM |  |  |  |  |  |
| CNCc1ccc(-c2nc(Nc3cc(C4CC4)[nH]n3)c3ccccc3n2)cc1 [9d, N-(5-cyclopropyl-1H-pyrazol-3-yl)-2-(4-((methylamino)methyl)phenyl)quinazolin-4-amine hydrogen chloride] | 119 nM | 20.4% |  | 577 nM |  | 36.2% |  |  |  |  |  | 539 nM | 413 nM | 11.1% |  |  |  |  |
| c1ccc2c(Nc3cc(C4CC4)[nH]n3)nc(N3CC4CC3CN4)nc2c1 (centres unmarked) [compound 14, 2-(2,5-diazabicyclo[2.2.1]heptan-2-yl)-M-(5-cyclopropyl-1G-pyrazol-3-yl)quinazolin-4-amine Trifluoroacetic acid] |  |  | 9.2% | 645 nM |  |  |  | 1700 nM |  | 63.4% | 21.8% | 647 nM |  |  | 593 nM | 25.5% |  |  |
| CC(C)(C)OC(=O)N1CC2CC1CN2c1nc(Nc2cc(C3CC3)[nH]n2)c2ccccc2n1 (centres unmarked) [compound 13, sdqs-butyl 5-(4-((5-cyclopropyl-1G-pyrazol-3-yl)amino)quinazolin-2-yl)-2,5-diazabicyclo[2.2.1]heptane-2-carboxylate] |  |  | 90% |  | 15.9% | 62% |  |  |  |  |  | 932 nM | 316 nM |  |  |  | 1000 nM | 53.8% |
